Laboratory results: the METLIN SMRT retention time set (Domingo-Almenara et al. 2019)

Experiment: gradient 5% acetonitrile 3 min, to 50% in 2 min, to 85% in 15 min, held 3 min, 100 µL/min
Conditions: column: Zorbax Extend-C18 2.1 x 50 mm; eluents: water / acetonitrile, 0.1% formic acid
Outline: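 Data were gathered over 3 months by HPLC coupled to a quadrupole time-of-flight mass spectrometer, operated in positive and negative ionization mode. Mixtures of ~100 pure standards ran on a Zorbax Extend-C18 column (2.1 × 50 mm, 1.8 μm) at 100 μL/min, with water and acetonitrile each containing 0.1% formic acid and dead and dwell volumes of 40 μL and 900 μL. Retention time was read from adduct peaks picked by computer and checked manually.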
For Cc1cccc(CC(=O)Nc2c(C(=O)N3CCN(c4ccccn4)CC3)oc3ccccc23)c1, the RP-LC retention time was 705 s.
Work on COc1cc(CNC(=O)c2cc(C(C)(C)C)n3nccc3n2)cc(OC)c1 yielded an RP-LC retention time of 1110 s.
O=C(Cn1cnc2c(sc3nc(-c4ccccc4)ccc32)c1=O)NCCC1=CCCCC1 gave an RP-LC retention time of 1090 s.
CCN(CC)c1nc(C(=O)Nc2ccccc2OC)nc2nc(C)cc(C)c12 gave an RP-LC retention time of 732 s.
In the case of CCOC(=O)c1ccccc1NC(=O)C1CCCN(c2cc(-n3cccn3)ncn2)C1 (centres undefined), the RP-LC retention time was 1100 s.
In the case of Cc1oc2ccn(C)c(=O)c2c1C(=O)NCc1cccc(Br)c1, the RP-LC retention time was 947 s.
With Cc1nn(CCC(=O)NCCC2=CCCCC2)c(=O)c2nn(-c3ccccc3)c(C)c12 the RP-LC retention time was 867 s.
Compound COc1cccc(N2C(=O)NC3CC2(C)Oc2ccc(OC)cc23)c1 (centres undefined) has an RP-LC retention time of 787 s.
For Cc1ccccc1NC(=O)N1CCc2nc(-c3ccccc3)ncc2C1, the RP-LC retention time was 817 s.
In the case of CC(=O)N1CCc2c(c(CNC(=O)Cc3c(C)noc3C)nn2C)C1, the RP-LC retention time was 570 s.
With O=C(CSC1=N/C(=C/c2ccc3c(c2)OCO3)C(=O)N1c1ccccc1)c1ccccc1 the RP-LC retention time was 1100 s.
COc1ccccc1CNC(=O)C1CCCN(c2cnc3nccnc3c2)C1 (centres undefined) showed an RP-LC retention time of 689 s.
Compound Cc1cccc(C2CCCN2C(=O)c2nn(C)cc2Cl)c1 (centres undefined) has an RP-LC retention time of 849 s.
Compound Cc1ccc(-c2nnc(-c3ccc(Br)cc3)o2)cc1S(=O)(=O)N(C)C has an RP-LC retention time of 1090 s.
Work on Cc1ccc(NC(=O)N2C[C@H](c3nc(-c4ccncc4)no3)[C@@H](C)C2)c(C)c1 yielded an RP-LC retention time of 797 s.
COc1cccc(NC(=O)NCCc2cn(C)c3ncccc23)c1 showed an RP-LC retention time of 662 s.
Cc1ccc2c(=O)c(C(=O)N3CCCCC3)cn(CC(=O)NCc3ccccc3)c2n1 showed an RP-LC retention time of 753 s.
Compound Cc1cc(C)n2nc(SCC(=O)NC3CCCCC3)nc2n1 has an RP-LC retention time of 693 s.
Compound CCC(=O)NCc1nc2c(n1C)CN(S(=O)(=O)Cc1ccc(Cl)cc1)CC2 has an RP-LC retention time of 539 s.
O=C(c1cccc(Cl)c1)N1CCc2cc(-c3ccno3)ccc21 gave an RP-LC retention time of 999 s.
With O=c1c2cnc3nc(-c4ccc(Cl)cc4)nn3c2ccn1CCO the RP-LC retention time was 716 s.
For CCCNC(=O)c1ccccc1OCc1nc(-c2ccccc2)no1, the RP-LC retention time was 954 s.
Nc1ccccc1C(=O)NC(=O)Nc1ccc(Oc2ncc(Br)cn2)c(Cl)c1 gave an RP-LC retention time of 946 s.
Cc1ccc(NC(=O)c2c(C)sc3ncnc(N4CCCC(C)C4)c23)cc1 (centres undefined) showed an RP-LC retention time of 1220 s.
With CCOc1ccccc1CNC(=O)COc1nc(CC)nc2oc(C)c(C)c12 the RP-LC retention time was 1050 s.
Compound Cc1ccc(C)c(-c2nnc(NC(=O)c3ccc4c(c3)OCCO4)o2)c1 has an RP-LC retention time of 921 s.
Work on CCCNC(=O)N1CCc2c(c(-c3nc(Cc4ccccc4)no3)nn2C)C1 yielded an RP-LC retention time of 780 s.
For COc1ccccc1CNC(=O)CN1CCN(Cc2cccc(Cl)c2)C1=O, the RP-LC retention time was 848 s.
Compound O=C(CC1CCN(C(=O)C2CCCCC2)CC1)NCc1ccccn1 has an RP-LC retention time of 596 s.
CCCN1C(=O)c2cc(S(=O)(=O)NCC(C)C)ccc2Oc2cccnc21 showed an RP-LC retention time of 1050 s.
Compound COc1ccc(-c2nnc(-c3cc(S(=O)(=O)NC(C)(C)CO)ccc3Cl)o2)cc1 has an RP-LC retention time of 837 s.
CCOc1cc(C2c3c(oc4ccccc4c3=O)C(=O)N2CCCN(C)C)ccc1O (centres undefined) showed an RP-LC retention time of 989 s.
With O=C(CCc1nnc2c3cc(-c4ccc(F)cc4)nn3ccn12)N1CCN(c2ccccn2)CC1 the RP-LC retention time was 611 s.
In the case of CCN(CC)C(=O)Cn1nc2nc(Nc3ccc(F)cc3)ccn2c1=O, the RP-LC retention time was 669 s.
For CCOC(=O)c1c(C)[nH]c(C(=O)N2CCCC(C(=O)NCc3ccc(OC(C)C)cc3)C2)c1C (centres undefined), the RP-LC retention time was 930 s.
With Cc1cc(C)n(Cc2ccc(C(=O)N3CCCN(c4cc(=O)n(C(C)C)c(=O)n4C(C)C)CC3)o2)n1 the RP-LC retention time was 768 s.
In the case of Cc1nnsc1C(=O)N1CCC(CNC(=O)C(C)(C)Oc2ccc(Cl)cc2)CC1, the RP-LC retention time was 806 s.
For CCC1CCCCN1CCNC(=O)C1CCCN(c2cnc3nccnc3c2)C1 (centres undefined), the RP-LC retention time was 569 s.
In the case of Cc1cccc(-c2nnc(-c3cc(S(=O)(=O)N4CCCC4)ccc3Cl)o2)c1, the RP-LC retention time was 1110 s.
O=C(NC1CCN(C(=O)c2cc(-c3cccs3)[nH]n2)CC1)c1ccccc1Cl showed an RP-LC retention time of 718 s.
In the case of CN1C(=O)CC[C@]2(C(=O)N3CCN(c4ccc(F)cc4)CC3)CCCC[C@@H]12, the RP-LC retention time was 723 s.
Work on CCOC(=O)c1ccc(NC(=O)Cn2c(=O)c(CCC(=O)NC)nc3ccccc32)cc1 yielded an RP-LC retention time of 1260 s.
CCOC(=O)N1CCN(c2nc(F)c3c(c2F)S(=O)(=O)CCN3CC2CCCO2)CC1 (centres undefined) showed an RP-LC retention time of 958 s.
Cc1nn(-c2nc(-c3ccccc3)cs2)c(C)c1CC(=O)Nc1ccccc1Cl showed an RP-LC retention time of 1220 s.
Work on Cn1cc(-c2nc(C(=O)N3CCN(c4ccccc4F)CC3)cs2)c2cccnc21 yielded an RP-LC retention time of 956 s.
Cc1cccc(-c2nc3ccccn3c2NC(=O)NCCc2ccccc2)c1 gave an RP-LC retention time of 680 s.
Work on CCC(C)CC(=O)N1CCCN(C2=NS(=O)(=O)C(c3ccc(C(C)C)cc3)=C2C)CC1 (centres undefined) yielded an RP-LC retention time of 1000 s.
Compound O=C([C@@H]1C[C@H](F)CN1C(=O)c1cccs1)N1CCCCC1 has an RP-LC retention time of 662 s.
Work on O=C(Nc1ccc(-c2nnc3n2CCCC3)cc1)c1ccc(Cl)cc1 yielded an RP-LC retention time of 724 s.
Work on O=C(c1cccc(N2C(=O)CCS2(=O)=O)c1)N1CCN(c2ccccn2)CC1 yielded an RP-LC retention time of 726 s.
O=C(NCc1ccc2c(c1)OCO2)C1CN(c2nc3c(F)cccc3s2)C1 gave an RP-LC retention time of 776 s.
Work on CCOCCCNCc1ccc(-c2ccc(Cl)cc2Cl)o1 yielded an RP-LC retention time of 765 s.
With COc1ccc(-c2cc(NS(C)(=O)=O)n(C3CCS(=O)(=O)C3)n2)cc1 (centres undefined) the RP-LC retention time was 696 s.
Compound Cc1cccc(CCNC(=O)C2CCN(S(=O)(=O)N3CCOCC3)CC2)c1 has an RP-LC retention time of 769 s.
In the case of Cc1cc(N2CCN(C(=O)Nc3ccc4c(c3)OCO4)CC2)nc(N2CCCC2)n1, the RP-LC retention time was 637 s.
CCN1C(=O)NC(c2ccc(C(F)(F)F)cc2)C2=C1CN(CCC(=O)N1CCOCC1)C2=O (centres undefined) showed an RP-LC retention time of 638 s.
CCn1ccc2sc(C)c(C(=O)N3CCCCC3)c2c1=O showed an RP-LC retention time of 684 s.
CC(C)NC(=O)N1CCC(OCc2ccccc2)C1 (centres undefined) showed an RP-LC retention time of 742 s.
With Cc1cc(NC(=O)CN2C(=O)CCc3cc(Br)ccc32)c2ccccc2n1 the RP-LC retention time was 684 s.
Work on Cc1nc2cccnc2n1CCN1CCN(C(=O)Nc2ccc(Cl)cc2)CC1 yielded an RP-LC retention time of 610 s.
O=C(Nc1cnc(N2CCCC2)nc1)c1ccsc1 gave an RP-LC retention time of 658 s.
Compound O=C(c1cc(F)ccc1F)N1CCCC1c1nc(-c2ccc(F)cc2)no1 (centres undefined) has an RP-LC retention time of 1030 s.
For Cc1nc2cc(-c3noc(-c4ccc(C#N)cc4)n3)ccc2n(C2CCCC2)c1=O, the RP-LC retention time was 691 s.
For O=C(c1cccc2[nH]cc(CN3CCOCC3)c12)N1CCN(c2ccc(Cl)cc2)CC1, the RP-LC retention time was 753 s.
Compound Cc1nn(C)c(C)c1CCN(C)c1ccc(C(=O)O)cc1NC(=O)c1ccc(Cl)cc1 has an RP-LC retention time of 780 s.
With Cc1ccc(Cn2nc3n(c2=O)CCCC3)cc1 the RP-LC retention time was 702 s.
O=C(CN1C(=O)CSc2ccc(C(=O)N3CCCC3)cc21)NC1CCCCCCC1 gave an RP-LC retention time of 760 s.
CCCN1C(=O)COc2ccc(-c3noc(COc4ccc(Cl)cc4)n3)cc21 showed an RP-LC retention time of 1190 s.
In the case of CCOC(=O)C1=C(C)NC2=C(C(=O)C(C(=O)OC)C(C)C2)C1c1cccc(OCC)c1 (centres undefined), the RP-LC retention time was 908 s.
Compound Cc1ccccc1Cn1nc2ccc(S(=O)(=O)N3CCCCC3)cn2c1=O has an RP-LC retention time of 813 s.
Work on COC(=O)Cn1c(C2CC(=O)N(c3ccccc3C)C2)nc2ccccc21 (centres undefined) yielded an RP-LC retention time of 704 s.
In the case of CCOC(=O)c1cc(S(=O)(=O)N2CCCC2C(=O)Nc2ccc(C)cc2Br)cn1C (centres undefined), the RP-LC retention time was 1060 s.
In the case of Cc1ccc(C)c(S(=O)(=O)N(C)CC2CCOCC2)c1, the RP-LC retention time was 913 s.
With COc1ccc(OC)c(NC(=O)C2(c3cccs3)CCOCC2)c1 the RP-LC retention time was 917 s.
O=S(=O)(c1cc(F)cc(F)c1)N1CCN(Cc2cccc(F)c2)C2(CCOCC2)C1 gave an RP-LC retention time of 958 s.
Compound Cn1nc2n(c1=O)CCN(S(=O)(=O)c1ccccc1C(F)(F)F)CC2 has an RP-LC retention time of 675 s.
Cn1cc2c3c(cccc31)CN(C(=O)c1cc(F)cc(F)c1)CC2 gave an RP-LC retention time of 955 s.
O=C(c1cccnc1)N1CCCN(c2nnc3ccc(Cl)cn23)CC1 showed an RP-LC retention time of 559 s.
For Cc1ccc(=O)n(CCNC(=O)Cc2cn(C)c3ccccc23)n1, the RP-LC retention time was 620 s.
O=C(c1sc2cc(F)ccc2c1Cl)N1CCN(c2ccccn2)CC1 showed an RP-LC retention time of 693 s.
With CCC(=O)NC(C)c1nc(-c2ccccc2Cl)no1 (centres undefined) the RP-LC retention time was 740 s.
In the case of CNC(=O)C1CCCN(c2nc3ncn(CC(=O)NC4CCCCC4)c(=O)c3s2)C1 (centres undefined), the RP-LC retention time was 632 s.
CCC(=O)N1c2ccc(S(=O)(=O)N3CCCCC3)cc2CC1C(=O)NC1CCCCC1 (centres undefined) showed an RP-LC retention time of 895 s.
CC1=C(c2ccccc2)S(=O)(=O)N=C1N1CCCN(C(=O)c2ccccc2F)CC1 showed an RP-LC retention time of 802 s.
COC[C@@H]1CN(c2cnccn2)C[C@H]1C(=O)NCc1cc(C)nn1C showed an RP-LC retention time of 563 s.
COc1cccc(N2C(=O)C3N=NN(Cc4nc(-c5ccc(Cl)cc5)no4)C3C2=O)c1 (centres undefined) gave an RP-LC retention time of 1010 s.
Cc1noc(C)c1CNC(=O)c1nccc2ccccc12 gave an RP-LC retention time of 753 s.
For Cc1cccc(NC(=O)N2CCC(CCN)CC2)c1, the RP-LC retention time was 586 s.
Work on Cc1ccc(-c2ncc(C#N)c(=O)n2CC(=O)NCc2ccccc2Br)cc1 yielded an RP-LC retention time of 1010 s.
